{"source": "patent US9732367B2", "about": "“Cell lines” (MEDIMMUNE LIMITED, priority 2012, dated 2017)", "key": {"[1]": {"system": "BT474", "experiment": "In vitro cytotoxicity assay, BT474", "assay_type": "cell-based", "conditions": "Table 8, 3 days, Alamar Blue"}, "[2]": {"system": "SKOV3", "experiment": "In vitro cytotoxicity assay, SKOV3", "assay_type": "cell-based, human", "description": "(§1) The ADC's generated as described above were tested for cytotoxic activity in SKOV3 and HCC1954 and PC3 tumor cell lines which are standard target cells for testing the activity of anti Her2 antibodies and ADC cell lines. SKOV3 and HCC1954 express high levels of Her2, while PC3 expresses Her2 at low level: the cytotoxic activity was calculated as the concentration of ADC to kill 50% of the tumor cells in vitro as described in Table 5.\n(§2) The Her2 over expressing cell lines, SKBR3 and SKOV3 were compared to PC3, a cell line that expresses very low level of Her2.\n(§3) The ADC's generated as described above were tested for cytotoxic activity in SKOV3 and a PC3 tumor cell lines which are standard target cells for testing the activity of anti Her2 antibodies and ADC cell lines. SKOV3 cells express high levels of Her2, while PC3 cells express Her2 at low level. […] The drug treated cells are incubated at 37 C for 3 days in 100 ul medium. 20 ul of Alamar Blue (Life Technologies) is added to each well and the cells incubated for 16-24 hours and an OD 450 nm determined for each well. The cytotoxic activity of the conjugates was calculated as the concentration of ADC to kill 50% of the tumor cells in vitro as described in Table 8."}, "[3]": {"system": "SKBR3", "experiment": "In vitro cytotoxicity assay, SKBR3", "assay_type": "cell-based", "description": "as §2, §3"}, "[4]": {"system": "HCC1954", "experiment": "In vitro cytotoxicity assay, HCC1954", "assay_type": "cell-based", "description": "as §1, §3"}, "[5]": {"conditions": "Table 5, positional 4D5-AF ADCs"}}, "note": "Square brackets hold non-standard residues; d marks the D form. Peptide text beside a SMILES is read from it. * marks the point of attachment. Dolaproine = CO[C@@H]([C@@H]1CCCN1)[C@@H](C)C(=O)O; Dil = CC[C@H](C)[C@H](NC)[C@@H](CC(=O)O)OC; NMe2Val = CC(C)[C@@H](C(=O)*)N(C)C", "data": [{"smiles": "CC[C@H](C)[C@@H]([C@@H](CC(=O)N1CCC[C@H]1[C@H](OC)[C@@H](C)C(=O)N[C@@H](Cc1ccccc1)C(=O)O)OC)N(C)C(=O)[C@@H](NC(=O)[C@H](C(C)C)N(C)C)C(C)C", "note": "[AF, Auristatin F] (NMe2Val-V[Dil][Dolaproine]F-OH)", "values": [{"measurement": "EC50", "setting": "[1]", "value": 58.8, "unit": "nM"}, {"measurement": "EC50", "setting": "[2]; [5]", "value": 69.4, "unit": "nM"}, {"measurement": "EC50", "setting": "[2]; Table 6", "value": 287, "unit": "nM"}, {"measurement": "EC50", "setting": "[2]; Table 8, 3 days, Alamar Blue", "value": 23.5, "unit": "nM"}, {"measurement": "EC50", "setting": "[3]; Table 6", "value": 71, "unit": "nM"}, {"measurement": "EC50", "setting": "[3]; Table 8, 3 days, Alamar Blue", "value": 33.3, "unit": "nM"}, {"measurement": "EC50", "setting": "[4]; [5]", "value": 18.8, "unit": "nM"}, {"measurement": "EC50", "setting": "[4]; Table 8, 3 days, Alamar Blue", "value": 12.9, "unit": "nM"}]}]}
